Experimental data as given in PubChem BioAssay (NCI).
Several values for one entry are separate records, joined by “and”; a condition that tells them apart may be missing. Equal values may be shown once.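 The compound was tested at five concentrations on cells cultured in 96-well plates, with a 48-hour exposure period. GI50 = concentration required for 50% inhibition of growth. The concentration for full growth arrest is given as TGI.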

Tests used:
Experiment in all cases: inhibition of tumour cell growth, NCI panel, 48 h
BT-549 breast = system: BT-549 breast
DLD-1 colon = system: DLD-1 colon
SNB-78 CNS = system: SNB-78 CNS
M19-MEL melanoma = system: M19-MEL melanoma
XF 498 CNS = system: XF 498 CNS
RXF-631 renal = system: RXF-631 renal
DMS 273 small cell lung = system: DMS 273 small cell lung

Compound	TGI (BT-549 breast) [µM]	TGI (DLD-1 colon)	TGI (SNB-78 CNS)	TGI (M19-MEL melanoma)	further results
O=C(CNc1ccccn1)Nn1cnc2ccc(S(=O)(=O)Nc3ccccn3)cc2c1=O	> 100				
CC(C)/C=C1\CCC(CN(C)C)C1=O (configuration not stated)	7.83	11.2 µM	23.8 µM	33.7 µM	TGI (XF 498 CNS): 4.17 µM
N#CCCn1[nH]c(=O)c(Cl)c(Cl)c1=O		27 µM	41.9 µM	42 µM	TGI (RXF-631 renal): 37.1 µM; TGI (XF 498 CNS): 29.6 µM
O=[N+]([O-])c1ccc(C2=Nc3ccccc3S(=O)C(c3ccccc3)C2)cc1 (configuration not stated)		38.4 µM		29.6 µM	TGI (DMS 273 small cell lung): 52.5 µM; TGI (RXF-631 renal): 40.1 µM; TGI (XF 498 CNS): 47.9 µM
FC(F)(F)c1ccc(C2ON=C(c3ccccc3)N2C23CC4CC(CC(C4)C2)C3)cc1 (configuration not stated)	> 10				
CC(C)OC(=O)c1ccc(NCc2cc(O)ccc2O)cc1	12.4				
CCOC(=O)c1c2ccc(/C=C/c3ccccn3)ccc-2c(C(=O)OCC)c1N		> 100 µM		> 100 µM	TGI (DMS 273 small cell lung): > 100 µM; TGI (RXF-631 renal): > 100 µM
CCCCCCCC/C=C1\CCC(CN(C)C)C1=O (configuration not stated)		4.9 µM	27.2 µM	10.5 µM	TGI (DMS 273 small cell lung): 5.12 µM; TGI (RXF-631 renal): 17.9 µM; TGI (XF 498 CNS): 12.8 µM
CC1=NN(c2nc(N)nc(NS(=O)(=O)c3cc(C)c(Cl)cc3S)n2)C(C)(C)C1	> 10				
COc1ccc(C2c3cc4c(cc3OC(NNc3ccccc3)C2C)OCO4)cc1 (configuration not stated)	76.1				
CCOC1OC(CO)C(O)CC1n1ccc(=O)[nH]c1=O (configuration not stated)	> 100				
CC(C)C1CNC(=O)C2(C=NC(C(C)C)CNC(=O)C3(C=N1)CCCO3)CCCO2 (configuration not stated)	> 10				
CC1=C(c2nc3ccccc3s2)C(=O)OC1(C)C		> 100 µM	> 100 µM	> 100 µM	TGI (DMS 273 small cell lung): > 100 µM; TGI (RXF-631 renal): > 100 µM; TGI (XF 498 CNS): > 100 µM
CCC(NC(C)c1ccccc1)C(=O)c1ccc(OCc2ccccc2)c(OCc2ccccc2)c1 (configuration not stated)	> 100				
COCC(C)(C)N=CN1Cc2cc3ccccc3nc2C1		> 100 µM		> 100 µM	TGI (XF 498 CNS): > 100 µM
CCOC(=O)N/N=C(/N)c1cccc(Br)c1	> 100				
Nc1nc2c(N)cc(C(F)(F)F)cc2nc1-c1ccccc1		> 100 µM	> 100 µM	> 100 µM	TGI (DMS 273 small cell lung): > 100 µM; TGI (XF 498 CNS): > 100 µM
Cc1cccc(C2ON=C(c3ccccc3)N2C23CC4CC(CC(C4)C2)C3)c1 (configuration not stated)	> 10				
O=C1C(c2ccccc2)=C(c2ccccc2)C(c2ccc(Cc3ccc(C4=C(c5ccccc5)C(=O)C(c5ccccc5)=C4c4ccccc4)cc3)cc2)=C1c1ccccc1		> 100 µM	> 100 µM	> 100 µM	TGI (DMS 273 small cell lung): > 100 µM; TGI (XF 498 CNS): > 100 µM
O[C@]12C=C(c3nccc4c3[nH]c3ccccc34)[C@@H]3CCN(CCCC/C=C\CC1)C[C@@]31CC3/C=C\CCCCN3[C@H]12 (some centres not stated)	10.4				
O=C1N=C2SC=C(NC(=S)Nc3ccccc3)N2NC12c1ccccc1-c1ccccc12	> 10				
CC(C)[C@@H]1CC[C@@H](C)C[C@H]1OC(=O)c1c2n(c3ccccc13)C[C@H]1OC(C)(C)O[C@@H]21	> 100				
CCOC(=O)C(NC(=O)OCc1ccccc1)C(=O)O (configuration not stated)	> 100				
CCN(CC)CCCNc1c2c(Cl)cc(Cl)cc2nc2nc(=O)[nH]c(C)c12	> 100				

Compound	TGI (BT-549 breast) [µM]	TGI (DLD-1 colon)	TGI (SNB-78 CNS)	TGI (M19-MEL melanoma)	further results
C=CCCC1(O)C(O)C(CO)O[C@H](O[C@@]2(CO)OC(CO)C(O)C2O)C1O (some centres not stated)	> 100				
CC(=O)CCCCn1c(=O)c2c(nc(Br)n2C)n(C)c1=O	> 100				
COC1(CC[C@@H](C)COC2OC(CO)C(O)C(O)C2O)O[C@H]2C[C@H]3[C@@H]4CC=C5C[C@@H](OC6OC(CO)C(OC7OC(C)C(O)C(O)C7O)C(O)C6OC6OC(C)C(O)C(O)C6O)CC[C@]5(C)[C@H]4CC[C@]3(C)[C@H]2[C@@H]1C (some centres not stated)	6.81				GI50 (BT-549 breast): 2.58 µM
O=C1N/C(=N\N=C\c2ccccc2)C(c2ccccc2)O1 (configuration not stated)	> 100				
CCc1n[nH]c(=O)n1CCCCCCCCn1c(CC)n[nH]c1=O	> 100				
C=C1CC(C)(COc2ccc3c(C)c(Cl)c(=O)oc3c2)OC1=O (configuration not stated)	2.81				
Cc1cc2ncn(-c3nc4ccccc4nc3C(C#N)S(C)(=O)=O)c2cc1C (configuration not stated)		> 100 µM	> 100 µM	> 100 µM	TGI (DMS 273 small cell lung): > 100 µM; TGI (XF 498 CNS): > 100 µM
O=C1Oc2ccccc2C1C/C(=N\Nc1ccccc1)c1ccccc1O (configuration not stated)	> 100				
Cc1c(C)c2c(c(N)c1C#N)C(=O)N(O)C2=O	> 100				
CC(C)N(C(=O)C12C3C4C1C1C2C3C41C#N)C(C)C (configuration not stated)		> 100 µM	> 100 µM	> 100 µM	TGI (DMS 273 small cell lung): > 100 µM; TGI (RXF-631 renal): > 100 µM; TGI (XF 498 CNS): > 100 µM
O=C(NCCN1CCCCC1)c1ccc(Br)cc1	> 100				
CCOC(=O)c1c[nH]c(C(=O)OCC)c1-c1cccn1-c1ccccc1	> 100				
CC(C)(C)N=CN1C=Cc2nc3ccccc3cc2C1		> 100 µM	> 100 µM	> 100 µM	TGI (DMS 273 small cell lung): > 100 µM; TGI (RXF-631 renal): > 100 µM; TGI (XF 498 CNS): > 100 µM
Nc1nc(NNc2cccc(F)c2)cc(=O)[nH]1	> 100				
O=C(O)c1nc2ccccc2nc1Nc1ccc(Cl)c(Cl)c1	61.4				
COC(=O)C(=O)C(C(=O)OC)C(=O)C(=O)Nc1c(C)cccc1C (configuration not stated)		> 100 µM	> 100 µM	> 100 µM	TGI (RXF-631 renal): > 100 µM; TGI (XF 498 CNS): > 100 µM
CC(C)c1cccc(C(C)C)c1NC(=O)C(=O)Cc1nc2ccc([N+](=O)[O-])cc2[nH]c1=O		> 100 µM		> 100 µM	TGI (DMS 273 small cell lung): > 100 µM; TGI (RXF-631 renal): > 100 µM
CC(C)(C)c1cc(CCC(=O)Nc2ccc(Cl)cc2)[nH]c(=S)n1		> 100 µM		> 100 µM	TGI (DMS 273 small cell lung): > 100 µM; TGI (RXF-631 renal): > 100 µM; TGI (XF 498 CNS): > 100 µM
O=C1NC2NC3NC(=O)NC3NC2N1 (configuration not stated)	> 100				
Cc1ccc(C(=O)CC2(O)C(=O)Nc3c(C)cc(Cl)cc32)cc1 (configuration not stated)		> 100 µM	> 100 µM		TGI (DMS 273 small cell lung): > 100 µM; TGI (RXF-631 renal): > 100 µM; TGI (XF 498 CNS): > 100 µM
O=C(Cc1ccccc1)NN1C(=O)C(Cl)C1c1ccccc1Cl (configuration not stated)		> 100 µM	> 100 µM	> 100 µM	TGI (DMS 273 small cell lung): > 100 µM; TGI (XF 498 CNS): > 100 µM
COc1nc(N=P(c2ccccc2)(c2ccccc2)c2ccccc2)cc(=O)n1C	> 100				
CCOc1ccccc1N=Nc1ccc2oc(=O)c(C(C)=O)cc2c1		> 100 µM	> 100 µM	> 100 µM	TGI (DMS 273 small cell lung): > 100 µM; TGI (XF 498 CNS): > 100 µM
CCCCOCCOCCOC1=CC(=O)c2c(O)ccc(O)c2C1=O	3.16				

Compound	TGI (BT-549 breast) [µM]	TGI (DLD-1 colon)	TGI (SNB-78 CNS)	TGI (M19-MEL melanoma)	further results
COc1ccccc1NC(=O)C1=C(C)NC(C)=C(C(=O)Nc2ccccc2OC)C1c1ccccc1[N+](=O)[O-]		36.5 µM	> 100 µM	49 µM	TGI (DMS 273 small cell lung): 34.9 µM; TGI (RXF-631 renal): 53.6 µM; TGI (XF 498 CNS): 46.2 µM
COC(=O)C1CC2C=CC=CC(=O)C2(C)C1 (configuration not stated)		28.9 µM	> 100 µM	> 100 µM	
CN(C)c1ccc(/C=C/C(=O)c2ccc(O)cc2)cc1	> 59				
COc1ccc(N2C(=O)c3c(c4[nH]c5ccccc5c4c4ccc(C(C)(C)C)cc34)C2=O)cc1		> 100 µM	60 µM	> 100 µM	TGI (DMS 273 small cell lung): > 100 µM; TGI (RXF-631 renal): > 100 µM; TGI (XF 498 CNS): 49.8 µM
O=Cc1c[nH]c2c(=O)[nH]cnc12		> 100 µM	> 100 µM	> 100 µM	
FC(F)(F)c1ccccc1C1SCC2=Nc3ccccc3CN21 (configuration not stated)	44.2				
O=c1[nH]/c(=C/c2ccc3c(c2)OCO3)c(=O)[nH]/c1=C/c1ccc2c(c1)OCO2	> 10				
COc1ccc(C(O)/C(=N/N)c2nc3ccc(Cl)cc3[nH]c2=O)cc1 (configuration not stated)	> 100				
Clc1ccc(Nc2nnc(CNc3ccc(-c4nnc(Nc5ccc(Cl)cc5)s4)cc3)s2)cc1	> 100				
CC1=CC2C(C=C1)S(=O)(=O)N1CC21c1ccccc1 (configuration not stated)		> 100 µM	> 100 µM	> 100 µM	TGI (DMS 273 small cell lung): > 100 µM
CC1=NN=C(C)C1N=Nc1ccc2nc(C)[nH]c2c1	> 100				
COc1cc2ccc3c4ccccc4cnc3c2cc1OC		> 100 µM	> 100 µM	> 100 µM	TGI (RXF-631 renal): > 100 µM
CC(C)Oc1c(C2(c3ccccc3)SCCCS2)c(=O)c1=O	> 100				
O=C1[C@@H]2C(c3ccc(Br)cc3)=NO[C@@H]2C(=O)N1c1ccc(Cc2ccc(N3C(=O)[C@H]4C(c5ccc(Br)cc5)=NO[C@H]4C3=O)cc2)cc1		> 40 µM	> 40 µM	> 40 µM	TGI (DMS 273 small cell lung): > 40 µM; GI50 (DLD-1 colon): > 40 µM; TGI (RXF-631 renal): > 40 µM; GI50 (SNB-78 CNS): > 40 µM; GI50 (M19-MEL melanoma): > 40 µM
N#CC(NNC(=O)Cc1ccccc1)c1cccc(O)c1 (configuration not stated)		> 100 µM	> 100 µM	> 100 µM	TGI (DMS 273 small cell lung): > 100 µM
COc1ccc2[nH]c3c(c2c1)[C@H](c1ccccc1)C[C@@H]1C(=O)N(c2ccccc2)C(=O)[C@H]31		> 100 µM	> 100 µM	> 100 µM	TGI (DMS 273 small cell lung): > 100 µM; TGI (RXF-631 renal): > 100 µM; TGI (XF 498 CNS): 55.8 µM
CC1(C)OC(=O)C(C)(C)C(=O)O1	> 100				
O=C1CCN2c3ccccc3[C@H]3Cc4cccc(c4[C@@H]2C3)CCO1	> 100				
Cc1ccc(S(=O)c2cccs2)cc1 (configuration not stated)	> 100				
CN(C)CCN(C)P12(Oc3ccccc3O1)Oc1c(Cl)c(Cl)c(Cl)c(Cl)c1O2	> 100				
CC1(C)CCN2C(=O)C34CCCC3CC21S4 (configuration not stated)	> 100				
COc1cc2c(c(OC)c1OC)-c1ccc(SC)c(=O)cc1[C@@H](NCc1ccc(F)cc1)CC2		75 µM and > 100 µM	65.6 µM and > 100 µM	75 µM and 13.3 µM	TGI (RXF-631 renal): 52.4 µM
COc1ccc(/C=c2\c(=O)[nH]c3nc4ccccc4c(=O)n23)cc1	> 100				
